# Test results: patent publication US20120245137A1 (Zalicus Pharmaceuticals Ltd., priority 2009, published 2012)
# What was measured:
# Assay type in all cases: cell-based
# [1] = biological target: N-type calcium channel subunits (α1B, α2δ, and β3a) (Homo sapiens, UniProt Q00975); assay: Block of Cav2.2 channel, whole cell voltage clamp, manual and PatchXpress; settings: Table 5; table follows Assay Example 3 (whole cell voltage clamp / PatchXpress); assay not given
# In short: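 Percent block taken as current amplitude ratio with versus without compound, applied in rising doses; IC50 fitted where one cell received multiple doses. Protocol: 50 ms pulses to +20 mV at 0.067 Hz from […] or −90 mV holding; P/n leak subtraction, no junction-potential correction; manual and PatchXpress recordings.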
# [2] = biological target: human α1H T-type channels (Homo sapiens, UniProt O95180); assay: T-type calcium channel block, whole cell patch clamp, α1H; settings: HEK cells stably expressing human α1H; mainly non-inactivated protocol; values above 10,000 nM represented as 10000
# In short: (§1)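 Whole-cell voltage clamp on stably transfected HEK 293 lines carrying human α1H or α1G. Two voltage protocols used: non-inactivated pre-pulse for resting block, inactivated for voltage-dependent block; test agents perfused locally in external solution (0.1-0.01% DMSO) following ~10 min rest.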
# [3] = biological target: human α1G T-type channels (Homo sapiens, UniProt O43497); assay: T-type calcium channel block, whole cell patch clamp, α1G; settings: HEK cells stably expressing human α1G; mainly non-inactivated protocol; values above 10,000 nM represented as 10000
# In short: as §1
# N-type calcium channel subunits (α1B, α2δ, and β3a), sequence (Q00975 whole entry): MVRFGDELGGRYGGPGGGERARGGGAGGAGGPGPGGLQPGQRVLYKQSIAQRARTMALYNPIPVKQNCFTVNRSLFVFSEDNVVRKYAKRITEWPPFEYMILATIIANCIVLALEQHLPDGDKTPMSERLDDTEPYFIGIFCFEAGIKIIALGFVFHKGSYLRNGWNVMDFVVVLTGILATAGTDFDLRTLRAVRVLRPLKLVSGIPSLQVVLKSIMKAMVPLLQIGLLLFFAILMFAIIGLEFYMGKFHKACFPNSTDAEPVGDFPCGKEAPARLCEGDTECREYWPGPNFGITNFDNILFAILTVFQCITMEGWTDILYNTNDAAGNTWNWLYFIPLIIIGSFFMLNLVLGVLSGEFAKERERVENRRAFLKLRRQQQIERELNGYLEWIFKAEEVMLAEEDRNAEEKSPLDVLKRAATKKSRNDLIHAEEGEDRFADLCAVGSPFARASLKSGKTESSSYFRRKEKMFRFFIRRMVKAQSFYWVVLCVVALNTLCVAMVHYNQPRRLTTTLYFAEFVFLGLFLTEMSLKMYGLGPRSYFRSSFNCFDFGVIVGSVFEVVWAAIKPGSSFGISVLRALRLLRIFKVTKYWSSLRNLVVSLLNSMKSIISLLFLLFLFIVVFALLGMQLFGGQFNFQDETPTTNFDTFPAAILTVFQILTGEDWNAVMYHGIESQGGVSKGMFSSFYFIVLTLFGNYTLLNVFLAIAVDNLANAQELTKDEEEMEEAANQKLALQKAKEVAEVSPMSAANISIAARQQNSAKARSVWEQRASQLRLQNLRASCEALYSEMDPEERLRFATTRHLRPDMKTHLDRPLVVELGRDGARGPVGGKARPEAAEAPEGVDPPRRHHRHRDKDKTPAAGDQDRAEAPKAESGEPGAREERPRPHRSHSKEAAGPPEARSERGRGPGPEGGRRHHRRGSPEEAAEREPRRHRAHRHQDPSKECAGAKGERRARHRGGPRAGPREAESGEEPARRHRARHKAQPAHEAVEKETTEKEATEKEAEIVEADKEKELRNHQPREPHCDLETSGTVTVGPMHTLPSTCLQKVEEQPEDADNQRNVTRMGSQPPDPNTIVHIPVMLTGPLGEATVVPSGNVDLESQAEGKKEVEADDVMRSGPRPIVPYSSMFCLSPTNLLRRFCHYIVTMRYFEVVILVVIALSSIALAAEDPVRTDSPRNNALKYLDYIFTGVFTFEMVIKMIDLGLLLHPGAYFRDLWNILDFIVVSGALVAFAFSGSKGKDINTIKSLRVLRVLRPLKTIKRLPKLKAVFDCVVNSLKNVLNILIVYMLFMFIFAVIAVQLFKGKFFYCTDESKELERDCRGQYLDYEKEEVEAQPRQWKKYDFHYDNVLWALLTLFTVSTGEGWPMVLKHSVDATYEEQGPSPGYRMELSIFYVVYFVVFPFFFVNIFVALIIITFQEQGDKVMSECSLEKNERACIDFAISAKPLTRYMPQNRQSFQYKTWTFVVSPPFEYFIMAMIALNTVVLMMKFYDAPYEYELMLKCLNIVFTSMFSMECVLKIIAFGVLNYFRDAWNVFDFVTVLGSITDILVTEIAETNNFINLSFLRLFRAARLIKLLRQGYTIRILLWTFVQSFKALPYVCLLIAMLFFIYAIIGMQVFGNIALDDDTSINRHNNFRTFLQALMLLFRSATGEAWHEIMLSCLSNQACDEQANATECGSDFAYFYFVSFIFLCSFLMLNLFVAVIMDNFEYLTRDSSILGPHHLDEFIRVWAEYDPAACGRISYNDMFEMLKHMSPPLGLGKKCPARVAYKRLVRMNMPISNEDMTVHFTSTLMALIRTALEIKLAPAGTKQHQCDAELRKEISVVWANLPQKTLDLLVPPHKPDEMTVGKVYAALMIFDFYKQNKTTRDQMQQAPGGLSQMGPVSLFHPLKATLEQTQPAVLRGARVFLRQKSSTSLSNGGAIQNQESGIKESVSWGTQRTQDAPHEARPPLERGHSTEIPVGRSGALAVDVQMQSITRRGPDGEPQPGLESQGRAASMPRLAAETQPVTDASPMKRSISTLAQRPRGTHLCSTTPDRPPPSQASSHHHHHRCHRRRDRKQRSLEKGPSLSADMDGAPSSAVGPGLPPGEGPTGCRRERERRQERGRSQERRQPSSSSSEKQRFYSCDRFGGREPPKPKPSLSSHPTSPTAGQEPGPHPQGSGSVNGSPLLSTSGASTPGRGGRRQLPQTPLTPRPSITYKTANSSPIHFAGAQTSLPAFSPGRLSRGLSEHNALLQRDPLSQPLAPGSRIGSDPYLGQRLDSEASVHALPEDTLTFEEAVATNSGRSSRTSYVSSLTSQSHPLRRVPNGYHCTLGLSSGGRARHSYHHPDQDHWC
# N-type calcium channel subunits (α1B, α2δ, and β3a), sequence (P54289 25-1103 partner): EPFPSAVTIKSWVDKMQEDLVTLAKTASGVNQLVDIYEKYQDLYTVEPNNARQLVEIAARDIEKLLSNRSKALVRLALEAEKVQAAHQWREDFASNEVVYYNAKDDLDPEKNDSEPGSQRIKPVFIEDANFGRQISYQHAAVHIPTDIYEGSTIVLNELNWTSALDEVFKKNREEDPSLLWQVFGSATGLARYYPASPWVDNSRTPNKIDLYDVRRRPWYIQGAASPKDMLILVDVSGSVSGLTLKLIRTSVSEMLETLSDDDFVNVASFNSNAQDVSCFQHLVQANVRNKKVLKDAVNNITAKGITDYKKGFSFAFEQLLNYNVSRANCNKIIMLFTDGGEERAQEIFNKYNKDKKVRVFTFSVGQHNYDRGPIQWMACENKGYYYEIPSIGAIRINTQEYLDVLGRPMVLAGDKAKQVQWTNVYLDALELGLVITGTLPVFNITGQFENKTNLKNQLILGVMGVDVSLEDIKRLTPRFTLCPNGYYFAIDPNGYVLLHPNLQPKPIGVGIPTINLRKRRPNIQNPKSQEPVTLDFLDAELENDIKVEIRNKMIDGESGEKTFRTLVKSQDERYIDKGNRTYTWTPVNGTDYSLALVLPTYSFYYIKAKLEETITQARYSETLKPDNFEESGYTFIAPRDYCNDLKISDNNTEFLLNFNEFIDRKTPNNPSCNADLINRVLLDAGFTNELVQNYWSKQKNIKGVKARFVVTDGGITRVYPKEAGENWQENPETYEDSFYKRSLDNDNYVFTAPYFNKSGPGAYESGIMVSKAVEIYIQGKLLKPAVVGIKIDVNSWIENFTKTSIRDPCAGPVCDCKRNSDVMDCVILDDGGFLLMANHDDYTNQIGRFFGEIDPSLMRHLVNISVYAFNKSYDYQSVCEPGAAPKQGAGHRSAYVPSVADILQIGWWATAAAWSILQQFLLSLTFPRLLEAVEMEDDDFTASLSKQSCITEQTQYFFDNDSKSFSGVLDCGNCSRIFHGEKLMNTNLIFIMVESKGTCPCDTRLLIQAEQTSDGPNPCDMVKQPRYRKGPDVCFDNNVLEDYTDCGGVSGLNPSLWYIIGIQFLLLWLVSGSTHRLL
# N-type calcium channel subunits (α1B, α2δ, and β3a), sequence (P54284 whole entry partner): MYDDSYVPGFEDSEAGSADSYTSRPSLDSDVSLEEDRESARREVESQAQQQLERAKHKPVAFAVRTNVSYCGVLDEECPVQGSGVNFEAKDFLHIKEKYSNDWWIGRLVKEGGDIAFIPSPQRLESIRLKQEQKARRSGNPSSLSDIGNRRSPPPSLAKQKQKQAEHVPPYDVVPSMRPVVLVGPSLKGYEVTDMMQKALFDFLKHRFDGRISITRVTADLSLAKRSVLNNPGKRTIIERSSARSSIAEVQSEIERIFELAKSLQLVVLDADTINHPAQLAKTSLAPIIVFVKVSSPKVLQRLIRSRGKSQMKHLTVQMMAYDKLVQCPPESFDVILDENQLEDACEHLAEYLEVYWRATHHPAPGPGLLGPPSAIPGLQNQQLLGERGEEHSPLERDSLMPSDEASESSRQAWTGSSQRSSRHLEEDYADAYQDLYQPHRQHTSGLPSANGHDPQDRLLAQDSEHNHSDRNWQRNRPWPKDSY
SMILES,IC50 [1] [nM],IC50 [2] [nM],IC50 [3] [nM]
"O=C(NC[C@H]1C[C@H](S(=O)(=O)c2cccc(C(F)(F)F)c2)C1)c1ccc(Cl)c(OC(F)(F)F)c1 [Compound 366, 4-chloro-3-(trifluoromethoxy)-N-(((1R,3R)-3-(3-(trifluoromethyl)phenylsulfonyl)cyclobutyl)methyl)benzamide]",190,> 10000,> 10000
"O=C(NC[C@H]1C[C@H](S(=O)(=O)c2cccc(C(F)(F)F)c2)C1)c1ccnn1CC(F)(F)F [Compound 367, 1-(2,2,2-trifluoroethyl)-N-(((1R,3R)-3-(3-(trifluoromethyl)phenylsulfonyl)cyclobutyl)methyl)-1H-pyrazole-5-carboxamide]",850,350,900
"CS(=O)(=O)c1cc(Cl)ccc1C(=O)NC[C@H]1C[C@H](S(=O)(=O)c2cccc(C(F)(F)F)c2)C1 [Compound 368, 4-chloro-2-(methylsulfonyl)-N-(((1R,3R)3-(3-(trifluoromethyl)phenylsulfonyl)cyclobutyl)methyl)benzamide]",940,400,950
"O=C(NC[C@H]1C[C@H](S(=O)(=O)c2cccc(C(F)(F)F)c2)C1)c1ccc(Cl)c(Cl)c1 [Compound 369, 3,4-dichloro-N-(((1R,3R)-3-(3-(trifluoromethyl)phenylsulfonyl)cyclobutyl)methyl)benzamide]",160,> 10000,> 10000
"O=C(NC[C@H]1C[C@H](S(=O)(=O)c2cccc(C(F)(F)F)c2)C1)c1cc(F)cc(Cl)c1 [Compound 370, 3-chloro-5-fluoro-N-(((1R,3R)-3-(3-(trifluoromethyl)phenylsulfonyl)cyclobutyl)methyl)benzamide]",290,640,680
"O=C(NC[C@H]1C[C@H](S(=O)(=O)c2cccc(C(F)(F)F)c2)C1)c1cnc(C(F)(F)F)nc1 [Compound 371, 2-(trifluoromethyl)-N-(((1R,3R)-3-(3-(trifluoromethyl)phenylsulfonyl)cyclobutyl)methyl)pyrimidine-5-carboxamide]",1160,660,1060
"O=C(NC[C@H]1C[C@H](S(=O)(=O)c2cccc(C(F)(F)F)c2)C1)c1cc(C(F)(F)F)ccn1 [Compound 372, 4-(trifluoromethyl)-N-(((1R,3R)-3-(3-(trifluoromethyl)phenylsulfonyl)cyclobutyl)methyl)picolinamide]",260,9630,7170
"O=C(NC[C@H]1C[C@H](S(=O)(=O)c2cccc(C(F)(F)F)c2)C1)c1ccc(OC(F)(F)F)cc1 [Compound 373, 4-(trifluoromethoxy)-N-(((1R,3R)-3-(3-(trifluoromethyl)phenylsulfonyl)cyclobutyl)methyl)benzamide]",250,610,820
"O=C(NC[C@H]1C[C@@H](S(=O)(=O)c2cccc(C(F)(F)F)c2)C1)c1ccc(F)c(C(F)(F)F)c1 [Compound 377, 4-fluoro-3-(trifluoromethyl)-N-(((1S,3S)-3-(3-(trifluoromethyl)phenylsulfonyl)cyclobutyl)methyl)benzamide]",460,1040,2340

# The next lines start with the values.
IC50 [1] [nM],IC50 [2] [nM],IC50 [3] [nM],SMILES
1130,1630,2790,"Cn1nc(C(F)(F)F)cc1C(=O)NC[C@H]1C[C@@H](S(=O)(=O)c2cccc(C(F)(F)F)c2)C1 [Compound 378, 1-methyl-3-(trifluoromethyl)-N-(((1S,3S)-3-(3-(trifluoromethyl)phenylsulfonyl)cyclobutyl)methyl)-1H-pyrazole-5-carboxamide]"
830,300,1810,"O=C(NC[C@H]1C[C@@H](S(=O)(=O)c2cccc(C(F)(F)F)c2)C1)c1ccc(F)c(Cl)c1 [Compound 379, 3-chloro-4-fluoro-N-(((1S,3S)-3-(3-(trifluoromethyl)phenylsulfonyl)cyclobutyl)methyl)benzamide]"
1360,5950,> 10000,"O=C(NC[C@H]1C[C@@H](S(=O)(=O)c2cccc(C(F)(F)F)c2)C1)c1ccnc(C(F)(F)F)n1 [Compound 383, 2-(trifluoromethyl)-N-(((1S,3S)-3-(3-(trifluoromethyl)phenylsulfonyl)cyclobutyl)methyl)pyrimidine-4-carboxamide]"
960,4740,> 10000,"O=C(NC[C@H]1C[C@@H](S(=O)(=O)c2cccc(C(F)(F)F)c2)C1)c1cn2cc(C(F)(F)F)ccc2n1 [Compound 384, 6-(trifluoromethyl)-N-(((1S,3S)-3-(3-(trifluoromethyl)phenylsulfonyl)cyclobutyl)methyl)imidazo[l,2-a]pyridine-2-carboxamide]"
710,> 10000,> 10000,"O=C(NC[C@H]1C[C@@H](S(=O)(=O)c2cccc(C(F)(F)F)c2)C1)c1ccc(C(F)(F)F)cn1 [Compound 385, 5-(trifluoromethyl)-N-(((1S,3S)-3-(3-(trifluoromethyl)phenylsulfonyl)cyclobutyl)methyl)picolinamide]"
2370,270,490,"O=C(NC[C@H]1C[C@@H](S(=O)(=O)c2cccc(C(F)(F)F)c2)C1)c1ccnc(C(F)(F)F)c1 [Compound 386, 2-(trifluoromethyl)-N-(((1S,3S)-3-(3-(trifluoromethyl)phenylsulfonyl)cyclobutyl)methyl)isonicotinamide]"
4220,710,720,"O=C(NC[C@H]1C[C@@H](S(=O)(=O)c2cccc(C(F)(F)F)c2)C1)c1ccnn1CC(F)(F)F [Compound 387, 1-(2,2,2-trifluoroethyl)-N-(((1S,3S)-3-(3-(trifluoromethyl)phenylsulfonyl)cyclobutyl)methyl)-1H-pyrazole-5-carboxamide]"
270,8980,6080,"O=C(NC[C@H]1C[C@H](S(=O)(=O)c2cc(F)cc(C(F)(F)F)c2)C1)c1ccc(F)c(C(F)(F)F)c1 [Compound 389, 4-fluoro-N-(((1R,3R)-3-(3-fluoro-5-(trifluoromethyl)phenylsulfonyl)cyclobutyl)methyl)-3-(trifluoromethyl) benzamide]"
1140,1060,1250,"O=C(Nc1ccc(Oc2ccc(F)c(Cl)c2)nc1)[C@H]1C[C@H](S(=O)(=O)c2cccc(C(F)(F)F)c2)C1 [Compound 399, (1R,3R)-N-(6-(3-chloro-4-fluorophenoxy)pyridin-3-yl)-3-(3-(trifluoromethyl)phenylsulfonyl)cyclobutane carboxamide]"
3830,5920,> 10000,"O=C(Nc1ccc(Oc2ccc(C(F)(F)F)cn2)nc1)[C@H]1C[C@H](S(=O)(=O)c2cccc(C(F)(F)F)c2)C1 [Compound 400, (1R,3R)-3-(3-(trifluoromethyl)phenylsulfonyl)-N-(6-(5-(trifluoromethyl)pyridin-2-yloxy)pyridin-3-yl) cyclobutanecarboxamide]"
1430,9260,> 10000,"O=C(Nc1ccc(Oc2ccc(C(F)(F)F)nc2)nc1)[C@H]1C[C@H](S(=O)(=O)c2cccc(C(F)(F)F)c2)C1 [Compound 401, (1R,3R)-3-(3-(trifluoromethyl)phenylsulfonyl)-N-(6-(6-(trifluoromethyl)pyridin-3-yloxy)pyridin-3-yl) cyclobutanecarboxamide]"
